One molecule from US5625032A, “Selective amylin antagonist peptides and uses therefor” (Amylin Pharmaceuticals, Inc., priority 1993, dated 1997) can be followed below.

One assay concerns rat soleus muscle. Kind of assay: Soleus muscle assay: antagonism of 100 nM rat amylin on insulin-stimulated glycogenesis. The class given is cell-based. To be noted: read-out: IC50, antagonism of amylin effect on insulin-stimulation of glycogenesis in skeletal muscle. As for the experimental part: Rat soleus muscle preparations have been in use for many years to study muscle glycogen metabolism and are well known in the field. The soleus muscle assay can be used to measure or test for amylin antagonist activity in vitro. Assays of biological activity of amylin or amylin antagonist preparations in the soleus muscle are performed using previously described methods (e.g., Young, A. A. et al., Am. J. Physiol. 263:E274-281 (1992)).
In summary, while amylin or amylin agonist activity is assessed by measuring the incorporation of radiolabelled glucose into glycogen in soleus muscle in response to an amylin or other amylin agonist, amylin antagonist activity is assessed by measuring the reversal of this inhibition in the presence of 100 nM rat amylin and an amylin antagonist. Concentrations of peptide dissolved in carrier-free buffers are determined by quantitative amino acid analysis, as described herein. The ability of compounds to act as antagonists in this assay can also be evaluated by measuring IC50 values. Standard errors are determined by fitting of sigmoidal dose response curves using a four parameter logistic equation (De Lean, A., Munson, P. J., Guardabasso, V. and Rodbard, D. (1988) ALLFIT, Version 2.7, National Institute of Child Health and Human Development, N.I.H. Bethesda, Md., 1 diskette).
These assays involving the stimulation by insulin of glycogen synthesis in rat soleus muscle in vitro were performed as described by Young, A. A. et al., Am. J. Physiol. 263:E274-281 (1992). Rat amylin inhibited the insulin-stimulated incorporation of radiolabelled glucose into glycogen.
The effects of the peptide in the rat soleus muscle glycogenesis system were measured according to the following method. Insulin-stimulated radioglucose incorporation was measured as described above in the presence of 100 nM rat amylin to maximally suppress incorporation. Increasing concentrations of AAP30 (SEQ ID NO:30), AAP37 (SEQ ID NO:37) and AAP40 (SEQ ID NO:40) were added to test their antagonism of amylin, i.e., to increase radioglucose incorporation under these conditions.

In assay [1] the target is T1, calcitonin receptors (Homo sapiens, UniProt P30988).
T1 construct: Membranes were prepared from confluent cultures of T47D cells as described for SK-N-MC cells; endogenous in cells; host or cells: human T47D carcinoma cells (membranes)
T1 sequence (P30988 25-474): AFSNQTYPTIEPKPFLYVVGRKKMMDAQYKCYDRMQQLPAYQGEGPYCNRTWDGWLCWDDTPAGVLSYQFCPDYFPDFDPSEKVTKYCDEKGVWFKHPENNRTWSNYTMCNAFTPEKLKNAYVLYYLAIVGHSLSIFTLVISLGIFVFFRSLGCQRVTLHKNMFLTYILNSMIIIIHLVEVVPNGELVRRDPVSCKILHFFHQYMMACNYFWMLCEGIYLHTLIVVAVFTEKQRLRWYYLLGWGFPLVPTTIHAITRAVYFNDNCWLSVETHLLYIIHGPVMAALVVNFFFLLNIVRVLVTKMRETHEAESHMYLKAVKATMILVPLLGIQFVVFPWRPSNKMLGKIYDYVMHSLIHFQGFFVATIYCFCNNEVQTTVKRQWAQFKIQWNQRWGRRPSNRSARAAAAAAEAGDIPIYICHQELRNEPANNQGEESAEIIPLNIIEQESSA
Kind of assay: Calcitonin receptor binding assay (125I salmon calcitonin, T47D cell membranes). To be noted: 30 pM 125I salmon calcitonin, 60 minutes, ambient temperature. An excerpt:
(§1) As more fully described in Example 9, these assays, like the amylin receptor binding assay, are competition assays which measure the ability of compounds to bind specifically to certain membrane-bound receptors. Preferred sources of membrane preparations used in these assays are human SK-N-MC neuroblastoma cells and human T47D carcinoma cells to measure binding to CGRP and calcitonin receptors, respectively. Compounds being assayed compete for binding to the CGRP receptor preparations with ^125 I human αCGRP and to the calcitonin receptor preparations with ^125 I salmon calcitonin. Competition curves are analyzed as described for amylin receptor binding assays. The affinity of a compound for the amylin receptor relative to the affinity of the compound for the CGRP and calcitonin receptors determines the selectivity of the compound.
(§2) The selectivity of antagonist peptides for the amylin receptor relative to the CGRP and calcitonin receptors was determined by using two in vitro radioligand binding assays and comparing the results obtained to those acquired from the amylin receptor binding assay described in Example 7.
(§3) To determine the affinity of the antagonist peptides for calcitonin receptors, human T47D carcinoma cells were used. […] Findlay et al., Cancer Research 40:4764-4767 (1980). Membranes were prepared from confluent cultures of T47D cells as described for SK-N-MC cells. Membranes were incubated with ^125 I salmon calcitonin (labeled at ^22 tyr, 2000 Ci/mmol) at a concentration of 30 pM for 60 minutes at ambient temperature. Additional methods were similar to those described for amylin receptor binding assays in Example 2. The IC50 of AAP40 (SEQ ID NO:40) for ^125 I salmon calcitonin binding to human T47D cell membranes was 50 nM.

Assay [2] deals with calcitonin receptors. The assay is described as above. More on the design: species or system human. To be noted: ratio of calcitonin receptor IC50 to amylin receptor IC50.
Text: as §1, §2, §3

The next assay deals with anesthetized rats. Kind of assay: Renin studies: inhibition of amylin-induced plasma renin activity. Type of assay: in vivo. To be noted: rat, i.v. 0.5 mg then 1.0 mg/hour; amylin 10 μg subcutaneous bolus. The method, then: The amylin antagonist AAP40 (SEQ ID NO:40) was evaluated in vivo for its ability to inhibit amylin-induced plasma renin activity. Male Harlan Sprague Dawley (age 77-82 days, mass 300-350 g) fasted 18-20 hours were halothane anesthetized and cannulated as described in Example 10. One and a half hours after surgery, one treatment group of 7 rats was administered amylin as a 10 μg subcutaneous bolus (t=0). Another treatment group of 6 rats was similarly treated except that they were also administered AAP40 (SEQ ID NO:40) (1 mg/mL) as a primed continuous intravenous infusion of 0.5 mg, then 1.0 mg/hour for a further 1.5 hours (t=-10 min to t=+120 min). Blood samples were collected at t=-30, 0, 30, 60 and 120 min for assessment of plasma renin activity using the INCStar GammaCoat [^125 I] plasma renin activity RIA kit (INCStar, Stillwater, Minn.; Cat. No. CA-533-553). Control rats, not administered AAP40 (SEQ ID NO:40), were injected with either saline or with primed/continuous amylin at t=0 hours, as described above.

Peptide text beside a SMILES is read from it.

On to `CC(=O)N[C@@H](C)C(=O)N[C@H](C(=O)N[C@@H](CCC(N)=O)C(=O)N[C@@H](CCCNC(=N)N)C(=O)N[C@@H](CC(C)C)C(=O)N[C@@H](C)C(=O)N[C@@H](CC(N)=O)C(=O)N[C@@H](CCC(=O)O)C(=O)N[C@@H](CC(C)C)C(=O)N[C@H](C(=O)N[C@@H](CCCNC(=N)N)C(=O)N[C@@H](CC(C)C)C(=O)N[C@@H](CCC(N)=O)C(=O)N[C@H](C(=O)N[C@@H](Cc1ccc(O)cc1)C(=O)N1CCC[C@H]1C(=O)N[C@@H](CCCNC(=N)N)C(=O)N[C@H](C(=O)N[C@@H](CC(N)=O)C(=O)N[C@H](C(=O)NCC(=O)N[C@@H](CO)C(=O)N[C@@H](CC(N)=O)C(=O)N[C@H](C(=O)N[C@@H](Cc1ccc(O)cc1)C(N)=O)[C@@H](C)O)C(C)C)[C@@H](C)O)[C@@H](C)O)C(C)C)[C@@H](C)O` [AAP40] (Ac-ATQRLANELVRLQTYPRTNVGSNTY-NH2), for which the IC50 (in general, the concentration that inhibits the measured activity by half) with rat soleus muscle was 136 nM; on calcitonin receptors [1], 50 nM. The “selectivity for amylin receptors than calcitonin receptors” value in the assay with calcitonin receptors [2] worked out at 100 fold. Further, the “effect on amylin-induced plasma renin activity” value with anesthetized rats was “effectively inhibits”.
